Test results from US20220338473A1, “USE OF BENZYL ALCOHOL AS A HERBICIDE” (INNOVI, priority 2019, published 2022).

Experiments:
Assay in all cases: Preventative activity (anti-germination), seeds on agar in Petri dish
Assay type in all cases: in vivo
Conditions in all cases: 0.35 g sprayed (benzyl alcohol pure, 700 L/Ha; glyphosate diluted at 0.5%)
Maize seeds = system: Maize seeds
Method: (§1) The assays were carried out on seeds sown on a Petri dish with respectively a control mode, an assay with benzyl alcohol and an assay with glyphosate herbicide (Gallup® super 360, Barclay).
(§2) The application of the product is carried out with a trigger spray bottle which makes it possible to spray 0.35 g of product per spraying, as microdroplets.
(§3) Seeds are placed on an agar gel in Petri dishes. 16 barley seeds, 24 rapeseed seeds, 18 wheat seeds, 10 maize seeds, 10 soybean seeds are positioned for each test.
(§4) The seeds are sprinkled either with 0.35 g water (equivalent 700 L/Ha) including 0.35 g pure benzyl alcohol (PanReac AppliChem—ITW Reagents) (equivalent 700 L/Ha pure benzyl alcohol), or with 0.35 g water for the control, or with 0.35 g glyphosate diluted at 0.5% for the glyphosate test.
(§5) The plants are observed at 0 and 11 days. The percentage of germination is the percentage of germinated seeds evaluated after 11 days.

Soybean seeds = system: Soybean seeds
Method: as §1, §2, §3, §4, §5

Barley seeds = system: Barley seeds
Method: as §1, §2, §3, §4, §5

Wheat seeds = system: Wheat seeds
Method: as §1, §2, §3, §4, §5

Rapeseed seeds = system: Rapeseed seeds
Method: as §1, §2, §3, §4, §5

Dandelion seeds = system: Dandelion seeds

## O=C(O)CNCP(=O)(O)O [Glyphosate, glyphosate, reference compound]
Maize seeds
  Percentage of germination at 11 days: 100%
Soybean seeds
  Percentage of germination at 11 days: 100%
Barley seeds
  Percentage of germination at 11 days: 100%
Wheat seeds
  Percentage of germination at 11 days: 100%
Rapeseed seeds
  Percentage of germination at 11 days: 100%
Dandelion seeds
  Percentage of germination at 11 days: 83%
